Test results published in patent publication US7335674B2, “Benzothiazole-4,7-diones and benzoxazole-4,7-diones with substituents in position 5 or 6 and method for production thereof” (Societe de Conseils de Recherches et d'Applications …, priority 2003, dated 2008).

Experiments:
[1] = test system: Mia-Paca2 (human pancreas cancer cells); assay: Antiproliferative activity, WST1 colorimetric test, Mia-PaCa2; type: cell-based; conditions: MIA PaCa-2, Mia-Paca2, treated 96 hours, up to 10 μM, read-out: IC50 on the cell proliferation of the Mia-Paca2 lines
Procedure, shortened: (§1)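 Cells in DMEM with 10% heat-inactivated FCS, seeded day 0, treated from day 1 for 96 h with rising concentrations up to 10 μM (0.1% DMSO final). Viability read by WST1 formazan formation; duplicate runs, 8 determinations per concentration; IC50 from linear regression of the linear part of the sigmoid.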

[2] = test system: DU145 (human prostate cancer cells); assay: Antiproliferative activity, WST1 colorimetric test, DU145; type: cell-based; conditions: DU-145, treated 96 hours, up to 10 μM, read-out: IC50 on the cell proliferation of the DU-145 lines
Procedure, shortened: as §1

IC50 [1] [µM]	IC50 [2] [µM]	melting point [°C]	SMILES
≤ 10	≤ 10	181 to 182	CN(C)CCNC1=CC(=O)c2nc(-c3ccc(Br)cc3)oc2C1=O [Example 31, 2-(4-bromophenyl)-6-{[2-(dimethylamino)ethyl]amino}-1,3-benzoxazole-4,7-dione]
≤ 10	≤ 10	165 to 166	O=C1C=C(NCCN2CCCC2)C(=O)c2oc(-c3ccc(Br)cc3)nc21 [Example 48, 2-(4-bromophenyl)-6-[(2-pyrrolidin-1-ylethyl)amino]-1,3-benzoxazole-4,7-dione]
≤ 10	≤ 10	171 to 172	O=C1C=C(NCCN2CCCC2)C(=O)c2oc(-c3cc(F)c(F)c(F)c3)nc21 [Example 52, 6-[(2-pyrrolidin-1-ylethyl)amino]-2-(3,4,5-trifluorophenyl)-1,3-benzoxazole4,7-dione]
